Values joined by “and” are separate entries in the source; they are usually repeats but may differ in a detail not shown here. Equal entries are not always repeated. Where two headings read alike, the source gives them in different places.
How the values were obtained:
[1] = Daily renal clearance rate (Clrenal) and serum-to-urine ratio from paired serum and urine; type: in vivo, human; conditions: for Renal clearance rate (PFOS): individual workers
Excerpt: The positive correlations between the PFAAs in the serum and the paired urine samples were highly statistically significant, with correlation coefficients of 0.87, 0.64, and 0.72 for PFHxS, PFOA, and PFOS, respectively, (p < 0.01). […] Additionally, the relative abundances of PFOS, PFHxS, and PFOA between the serum and paired urine samples were quite different. The relative abundances in the serum are 64%, 24%, and 12%, respectively, while those in the urine were 19%, 31%, and 40%, respectively. […] Moreover, the ratio of serum-to-urine concentrations (S/U) might be an indicator for PFAA excretion in humans because PFAAs could concentrate in serum while urine excretion is considered an important PFAA elimination pathway. The GM values of S/U for PFHxS, PFOA, and PFOS in all samples were 697, 288, and 1782, respectively, indicating the difficulty in PFAA renal elimination from the workers. To exclude the potential effect of individual differences related to demographic information such as body weight and gender, the daily renal clearance rate (Clrenal) was introduced in the study. Clrenal is a parameter defined in Eq (3) that adjusts the S/U through body weight and the gender-specific daily urine excretion volume.
Paired samples with either concentration under the LOD were set as LOD/2 in the Clrenal study. The urine excretion volumes of males and females were set at 1.4 and 1.2 L/day in the study, respectively, and the body weight values of individual workers were obtained from our questionnaires. The calculated Clrenal values for PFHxS, PFOA, PFOS ranged from 2.0 × 10^−4 to 2.3, 9.0 × 10^−5 to 2.4, and 5.0 × 10^−5 to 0.54 mL day^−1 kg^−1 with GM values of 0.023, 0.067 and 0.010 mL day^−1 kg^−1, respectively (Fig. 3). The minimum values of the PFAAs Clrenal were calculated on the basis of LOD/2 instead of ND (not detected) in the present study. […] However, Zhang et al. observed that the Clrenal of PFHxS was the lowest among these 3 type of PFAAs[28]. The median Clrenal of PFAAs in the present study was similar to that of Zhou et al.’s study (0.012 mL day^−1 kg^−1 for PFHxS, 0.061 mL day^−1 kg^−1 for PFOA, and 0.010 mL day^−1 kg^−1 for PFOS)[39]. In contrast, as noted elsewhere, the Clrenal values of PFOA were the highest among those of the three PFAAs[28][38]. The most recent study on the elevated serum concentrations of PFAAs in fishery employees from Tangxun Lake also stated that the median Clrenal of PFOA (0.061 mL day^−1 kg^−1) was higher than those of the PFHxS and PFOS (0.012 and 0.010 mL day^−1 kg^−1)[39]. […] Moreover, the renal clearance rates of PFAAs in humans were not obviously influenced by the PFAAs level in the serum. […] In addition, gender could not be discounted. The Clrenal values of PFOS for the male workers were significant lower than those for the females (p < 0.01). Wong et al. studied the elimination rate constant of PFOS in a USA population and speculated that there might be other sex-specific elimination routes other than menstruation between men and women. No significant differences were found between the Clrenal values of PFOA and PFHxS for the males and females tested in the study.

[2] = Half-life estimated by daily clearance rates (first-order model, k = Cltotal/Vd); type: in vivo, human
Excerpt: Olsen et al.[21] found linear relationship between the logarithm of serum PFAAs concentration and time, and a first order model was adopted to estimate the half-lives of PFAAs. The elimination of PFAAs in humans was also described with the following equation: […]
If we set C(t) as 1/2C0, then the half-life
where k is the elimination rate constant. We calculated k using two approaches in the present study. In the first approach, k is defined as Cltotal/Vd, where Vd stands for the volume of distribution of PFAAs in the human body. Cltotal represents the total daily PFAAs clearance in the human body; for men and women older than 50, it refers to renal clearance, while for young women, it is defined as the sum of menstrual clearance and renal clearance. To keep consistency with other studies, Vd of PFOS and PFHxS were set at 230 mL kg^−1, and Vd of PFOA was set at 170 mL kg^−1 in this study. In the second approach, k is defined as the average annual decline rates of PFAAs in workers who participated in this study.
We used a first order model to estimate the half-lives of PFAAs in workers (Eq (2)). k was defined as […], where Cltotal referred to renal clearance for men and women older than 50 and to the sum of menstrual clearance and renal clearance for young women. According to Eq (2), the half-lives of PFHxS, PFOA, and PFOS for the occupational workers tested ranged from 0.51–3799 years, 0.44–3663 years, and 0.76–30475 years, with GM and median values of 14.7 and 11.7, 4.1 and 4.0, 32.6 and 21.6 years, respectively (Table 2). […] The GM values of the half-lives of PFHxS, PFOA, and PFOS for men here were 19.9, 4.7, and 60.9 years, respectively, while those for women were 7.5, 3.1, and 8.0 years, respectively. The half-lives estimated by the limited clearance route information could be considered as the upper limits for PFAAs. It seemed likely that the unrealistically long half-life estimates derived from the urinary data were actually evidence of the contribution of fecal elimination to the clearance of these chemicals. The extremely long half-lives of PFAAs, such as 3799 years for PFHxS, 3663 years for PFOA, and 30475 years for PFOS, were caused by the application of LOD/2 instead of ND in workers’ urine samples. The geometric mean or median value of the PFAAs half-lives can better reflect the actual situation.

[3] = cited from earlier work
[4] = cited from earlier work; remark: listed apart in the source
[5] = parameters: method as in PMID 23980546, PMID 12499116, PMID 20236705; conditions: set value; cited from earlier work
[6] = Female workers, number 71, menstrual clearance added to renal clearance
[7] = retired fluorochemical production workers

Compound: O=S(=O)(O)C(F)(F)C(F)(F)C(F)(F)C(F)(F)C(F)(F)C(F)(F)C(F)(F)C(F)(F)F [PFOS, perfluorooctanesulfonate]
- Ratio of serum-to-urine concentrations (S/U), GM ([1]; all samples): 1782
- Clrenal, GM ([1]; all workers): 0.010 mL/day/kg
- Clrenal, range ([1]; all workers, minimum on the basis of LOD/2): 5.0 × 10^−5 to 0.54 mL day^−1 kg^−1
- Renal clearance rate (PFOS) ([1]; sampling year 2009): 0.028 mL/day/kg and 0.066 mL/day/kg and 0.010 mL/day/kg and 0.013 mL/day/kg and 0.009 mL/day/kg and 0.037 mL/day/kg and 0.018 mL/day/kg and 0.001 mL/day/kg and 0.035 mL/day/kg and 0.004 mL/day/kg and 0.005 mL/day/kg and 0.006 mL/day/kg and 0.003 mL/day/kg and 0.019 mL/day/kg and 0.023 mL/day/kg and 0.007 mL/day/kg and 0.017 mL/day/kg and 0.024 mL/day/kg and 0.030 mL/day/kg and 0.014 mL/day/kg and 0.002 mL/day/kg and 0.032 mL/day/kg
- Renal clearance rate (PFOS) ([1]; sampling year 2010): 0.038 mL/day/kg and 0.013 mL/day/kg and 0.014 mL/day/kg and 0.058 mL/day/kg and 0.002 mL/day/kg and 0.004 mL/day/kg and 0.048 mL/day/kg and 0.039 mL/day/kg and 0.008 mL/day/kg and 0.005 mL/day/kg and 0.028 mL/day/kg and 0.009 mL/day/kg and 0.041 mL/day/kg and 0.007 mL/day/kg and 0.027 mL/day/kg and 0.026 mL/day/kg and 0.006 mL/day/kg and 0.034 mL/day/kg and 0.083 mL/day/kg and 0.020 mL/day/kg and 0.017 mL/day/kg and 0.025 mL/day/kg and 0.010 mL/day/kg
- Renal clearance rate (PFOS) ([1]; sampling year 2011): 0.007 mL/day/kg and 0.009 mL/day/kg and 0.024 mL/day/kg and 0.052 mL/day/kg and 0.018 mL/day/kg and 0.016 mL/day/kg and 0.028 mL/day/kg and 0.021 mL/day/kg and 0.017 mL/day/kg and 0.029 mL/day/kg and 0.004 mL/day/kg and 0.006 mL/day/kg and 0.003 mL/day/kg and 0.025 mL/day/kg and 0.001 mL/day/kg and 0.013 mL/day/kg and 0.023 mL/day/kg and 0.022 mL/day/kg and 0.020 mL/day/kg and 0.033 mL/day/kg and 0.002 mL/day/kg and 0.091 mL/day/kg and 0.039 mL/day/kg and 0.041 mL/day/kg
- Half-life estimated through daily elimination, GM [2, 6]: 8.0 years
- Half-life estimated through daily elimination, Max [2, 6]: 15.1 years
- Half-life estimated through daily elimination, Median [2, 6]: 9.4 years
- Half-life estimated through daily elimination, Min [2, 6]: 0.76 years
- Half-life estimated through daily elimination, Min ([2]; Male workers, number 136, renal clearance): 2.7 years
- Half-life estimated through daily elimination, Min ([2]; Total workers, number 207): 0.76 years
- Half-life, population-based pharmacokinetic model ([3]; US NHANES cross-sectional data 1999 to 2012): 3.7 years
- Shortest half-life in humans reported in previous studies [3]: 3.7 years
- Half-life based on serum concentrations ([3]; humans): more than 5 years
- Half-life by daily clearance (GM) ([3]; males and older females): 18 years
- half-life ([3]; males and older females): exceeded 10 years
- Half-life (GM) [3, 7]: 4.8 years
- Half-life, 95% CI [3, 7]: 3.9–6.9 years
- half-life [3, 7]: approximately 5 years
- Half-life by daily clearance (GM) ([3]; young females): 5.1 years
- Serum concentration in 85 percent of the sampled Chinese population ([4]; general population): less than 100 ng mL^−1
- Serum concentration, median ([4]; workers in another fluorochemical plant in China): 33.5 ng/mL
- Serum concentration, geometric mean ([4]; workers of the 3 M Company): 910 ng/mL
- Vd (volume of distribution in the human body) [5]: 0.23 L/kg
